From patent US20260083769A1, “2-Aminopropane-1,3-Diol-Capped Cationic Peptoids for Nucleic Acid Delivery” (NUTCRACKER THERAPEUTICS, INC., priority 2022, published 2026) come the findings set out here.

“Also recorded” adds a separate entry of the source. Like-named read-outs stand apart in the source and are kept apart here. Where a SMILES comes first, the peptide text is derived from it. [ ]: non-standard residue; d: D form. N(2-ethylhexyl)Gly = CCCCC(CC)CNCC(=O)O; Gly(N-dodecyl) = CCCCCCCCCCCCNCC(=O)O; N(CH(CH2OH)2)Gly = O=C(O)CNC(CO)CO; NHexGly = CCCCCCNCC(=O)O

The nature of data set [1]: RBC hemolysis as metric for fusogenicity. It is filed as cell-based. The conditions noted are these: sheep red blood cells (RBCs), 5% v/v, Table 5, delivery vehicle, 37° C. 45 min. The method in brief:
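Sheep RBCs at 5% v/v in 20 mM citrate/140 mM NaCl pH 5.5 or PBS, exposed to LNPs at […] in well, 37 °C for 45 min. Supernatant absorbance at 425 nm; % hemolysis normalized to 2% Triton full lysis and buffer-only control.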

The subject of the next data set is BALB/c mice. Nature of the data set: Serum anti-RSV antibody (aRSV) after IV dose of aRSV mRNA delivery vehicles, IgG ELISA. It is filed as in vivo. The following applies: for serum levels of aRSV (secreted protein expression): BALB/c mice, IV, 0.75 mg/kg mRNA, after 24 hours, IgG ELISA; for secreted protein (serum aRSV) expression in vivo, comparison of monomer order isomers: Compound 31 versus Compound 41. On the procedure: For imaging studies, female BALB/c mice (6-8 weeks old) were obtained and acclimatized for a minimum of 3 days prior to experiments. The animals were maintained on a 12 hour light cycle in a temperature and humidity controlled room. A daily health check was performed as well as food and water check. For dosing, mice were injected with 2.5 μg fLuc mRNA-containing delivery vehicles intravenously in 100 μL total injection volume. At 6 hours post-injection, mice were anesthetized with isoflurane, and injected intraperitoneally with 30 mg/mL D-luciferin at a dose of 10 μL per gram bodyweight intraperitoneally. Imaging was done 10 minutes post D-luciferin injection using an IVIS® Spectrum Imaging System. Immediately after in vivo imaging, mice were terminally bled by cardiac puncture and euthanized. The organs of interest were harvested, placed in black 24-well plates, and imaged. Living Image® software was used to quantify the total photon flux in regions of interest. For secreted protein studies, mice were injected with aRSV mRNA-containing delivery vehicles intravenously in 100 μL total injection volume. Mice were euthanized after 24 hours, with serum collection at 6 and 24 hours post-injection. Serum was used to quantify secreted aRSV levels using ELISA following the manufacturer's recommendation for IgG using a standard curve generated from aRSV protein.
To understand how the delivery vehicles disclosed herein (e.g., delivery vehicles comprising compounds of Formula (I)) performed as systemic delivery vehicles, the top four candidates for firefly luciferase expression from the optimized DOE model (Compounds 12, 41, 34, and 35) were evaluated for their ability to produce anti-RSV antibody in BALB/c mice. Anti-RSV was chosen as a model target due to the availability of therapeutic benchmarking information and sequence availability. Delivery vehicles comprising aRSV were formulated from two mRNA molecules encoding the heavy and light chain at a 2:1 mass ratio. All delivery vehicles were below 120 nm in size with encapsulation greater than 85% (Table 7).
Delivery vehicles were dosed intravenously in BALB/c mice at a total dose of 0.75 mg/kg mRNA and serum levels of aRSV were compared after 24 hours by an IgG ELISA.

The mark [2] stands for this setting: pH 5, read-out: Hemolysis at pH 5.
[3] abbreviates: pH 7, read-out: Hemolysis at pH 7.

Take `CCCCCCN(CC(N)=O)C(=O)CN(CC(CC)CCCC)C(=O)CN(CC(CC)CCCC)C(=O)CN(CCCCCC)C(=O)CN(CC(CC)CCCC)C(=O)CN(CC(CC)CCCC)C(=O)CNC(CO)CO` (stereo not drawn) [Compound 12] (H-[N(CH(CH2OH)2)Gly][N(2-ethylhexyl)Gly][N(2-ethylhexyl)Gly][NHexGly][N(2-ethylhexyl)Gly][N(2-ethylhexyl)Gly][NHexGly]-NH2): the hemolysis at 45 min, 150 mM total lipid in data set [1] (setting [2]) came out at 52.1%; in data set [1] (setting [3]), 1.5%. Moreover, in the data set with BALB/c mice, the “serum levels of aRSV (secreted protein expression)” value (from here on “serum levels of aRSV”) is listed as “lowest aRSV expression of the top 4 candidates”.

Take `CCCCCCCCCCCCN(CC(=O)N(CC(=O)N(CC(=O)N(CCCCCCCCCCCC)CC(=O)N(CC(=O)N(CC(N)=O)CC(CC)CCCC)CC(CC)CCCC)CC(CC)CCCC)CC(CC)CCCC)C(=O)CNC(CO)CO` (stereo not drawn) [Compound 31] (H-[N(CH(CH2OH)2)Gly][Gly(N-dodecyl)][N(2-ethylhexyl)Gly][N(2-ethylhexyl)Gly][Gly(N-dodecyl)][N(2-ethylhexyl)Gly][N(2-ethylhexyl)Gly]-NH2): the hemolysis at 45 min, 150 mM total lipid in data set [1] (setting [2]) turned out to be 5.8%; in data set [1] (setting [3]), 2%. Moreover, in the data set with BALB/c mice, the “secreted protein (serum aRSV) expression in vivo, comparison of monomer order isomers” value is reported as “within error”.

As for `CCCCCCCCCCCCN(CC(=O)N(CC(N)=O)CC(CC)CCCC)C(=O)CN(CCCCCC)C(=O)CN(CC(CC)CCCC)C(=O)CN(CCCCCCCCCCCC)C(=O)CN(CCCCCC)C(=O)CNC(CO)CO` (stereo not drawn) [Compound 34] (H-[N(CH(CH2OH)2)Gly][NHexGly][Gly(N-dodecyl)][N(2-ethylhexyl)Gly][NHexGly][Gly(N-dodecyl)][N(2-ethylhexyl)Gly]-NH2), the hemolysis at 45 min, 150 mM total lipid worked out at 11.8% in data set [1] (setting [2]) and 27.6% in data set [1] (setting [3]). In the data set with BALB/c mice, the “serum levels of aRSV” value is “highest levels of secreted protein expression”.

Turning to `CCCCCCCCCCCCN(CC(=O)N(CC(=O)N(CC(=O)N(CCCCCCCCCCCC)CC(=O)N(CC(N)=O)CC(CC)CCCC)CC(CC)CCCC)CC(CC)CCCC)C(=O)CN(CC(CC)CCCC)C(=O)CNC(CO)CO` (stereo not drawn) [Compound 41] (H-[N(CH(CH2OH)2)Gly][N(2-ethylhexyl)Gly][Gly(N-dodecyl)][N(2-ethylhexyl)Gly][N(2-ethylhexyl)Gly][Gly(N-dodecyl)][N(2-ethylhexyl)Gly]-NH2), the hemolysis at 45 min, 150 mM total lipid in data set [1] (setting [2]) is 4.5%; in data set [1] (setting [3]) it was 2.9%. The “serum levels of aRSV” value in the data set on BALB/c mice (0.75 mg/kg) is “highest levels of secreted protein expression; also recorded: highest overall aRSV titers”. Further, the “secreted protein (serum aRSV) expression in vivo, comparison of monomer order isomers” value with BALB/c mice is “within error”. Besides, the “dependence of serum aRSV titers on injected dose” value in the data set with BALB/c mice (Compound 41 in Formulation D22, 0.3, 0.75, and 1.5 mg/kg) is reported as “generally linear dependence on injected dose”. The “time aRSV titers were observed in the serum” value in the data set on BALB/c mice (Compound 41 in Formulation D22, mice, post-dosing) is on record as over 5 days.
